Data: patent publication EP0983256B1, “TRIPTOLIDE DERIVATIVES USEFUL IN THE TREATMENT OF AUTOIMMUNE DISEASES” (priority 1997, dated 1998)
Converted amounts (≈) assume the structure as drawn.

Key:
[1] = tested on: IL-2 production; experiment: Interleukin-2 assay (IL-2 production, ELISA); format: cell-based, human; settings: cells stimulated with PHA 10 µg/mL and 10^-8 M TPA; incubation 16-24 hours
Description: (§1) Jurkat E6-1 cell line (ATCC), a human leukemic T cell line or lymphocytes prepared from fresh human blood, are grown in compiete culture medium consisting of RPMI-1640 (Mediatech) supplemented with 10% v/v fetal bovine serum (HyClone, Logen, Vermont), penicillin (100 units/mL), streptomycin (200 µg/mL), and 2mM L-glutamine (GIBCO, Grand Island, New York). The cells are grown to a concentration of between 1.2 to 1.8 X 10^6 cells/mL before use. The cells are then centrifuged at low speed and resuspended to a concentration of 1.25 X 10^6 cells/mL in fresh medium.
(§2) The compounds to be tested are dissolved in DMSO, and water is added to make a 50% DMSO/water solution. The compounds are then diluted in sterile water such that the DMSO concentrations are less then 0.05%. The cells at a concentration of 1.25 X 10^6 cells/mL are stimulated with phytohemagglutinin 10 µg/mL (PHA) and 10^-8 M phorbol ester (12-O-tetradecanoylphorbol 13-acetate: TPA), (Sigma, St. Louis, Missouri). The compounds are then added and the cells are plated in flat-bottom tissue culture plates (Falcon, Lincoln Park, New Jersey), with 250,000 cells/well. Plates are then incubated at 37°C under an atmosphere of 5% CO2.
(§3) After incubation (16-24 hours), the cells are assayed for IL-2 production and cell viability (MTT). IL-2 production is assayed utilizing a solid phase ELISA immunoassay, sold in kit form by R&D Systems, Inc., Minneapolis, Minnesota.

[2] = tested on: Jurkat E6-1 cell line; experiment: Cell viability (MTT mitochondrial enzyme assay); format: cell-based, human; settings: same cells after removal of supernatant for the IL-2 assay; MTT 4 hours, read at 570 nm
Description: as §1, §2, §3
Cell viability is measured by the use of a mitochondrial enzyme assay. After removal of the supernatant for the IL-2 assay, Cell Titer 96 (a commercial solution of MTT available from Promega, Madison, Wisconsin) is added to the plates and incubated for 4 hours at 37°C. A solubilization solution is then added and incubated overnight. The plates are then read on an ELISA plate reader at a wavelength of 570 nm. Table II presents the results for the Interleukin-2 assay, the cell viability assay and the ratio of cell viability/IL-2 inhibition.

| Compound | IC50/IL-2 [1] | IC50/MTT [2] |
| --- | --- | --- |
| [5R-(5α,5aβ,6β,7α,9aβ,9bβ)]-3b,4,5,5a,6,7,9a,10,11-decahydro-5a,6,9a-trihydroxy-9b-methyl-7-(1-methylethyl)-5,7-epoxyphenanthro[1,2-c]furan-1(3H)-one [Example 3] | 500 ng/mL | >>1,000 ng/mL |
| CC(C)[C@]1(O)C=C[C@@]2(O)[C@@]3(C)CCC4=C(COC4=O)C3CC[C@@]2(O)[C@@H]1O (stereo partly drawn) [Example 2, [5aR-(5aα,6α,7β,9aα,9bα)]-3b,4,5,5a,6,7,9a,9b,10,11-decahydro-5a,6,7,9a-tetrahydroxy-9b-methyl-7-(1-methylethyl)-phenanthro[1,2-c]furan-1(3H)-one] | 14 ng/mL (≈ 0.0384 µM) | 90 ng/mL (≈ 0.247 µM) |
| [5aS-(5aα,5bα,8β,9α,9aR*,10aβ)]-4,5a,5b,8,9,10a,11,11a-octahydro-5b,8,9-trihydroxy-5a-methyl-8-(1-methylethyl)-1H-oxireno[8a,9]phenanthro[1,2-c]furan-3(5H)-one [Example 1] | 1,000 ng/mL | >>1,000 ng/mL |
